Test results published in ChEMBL document CHEMBL1146953, “Carbonic anhydrase inhibitors: cloning and sulfonamide inhibition studies of a carboxyterminal truncated alpha-carbonic anhydrase from Helicobacter pylori” (Bioorg Med Chem Lett, 2006).

target: T1, Carbonic anhydrase (Helicobacter pylori (strain ATCC 700392 / 26695) (Campylobacterpylori), UniProt O24855)
T1 sequence (O24855 whole entry): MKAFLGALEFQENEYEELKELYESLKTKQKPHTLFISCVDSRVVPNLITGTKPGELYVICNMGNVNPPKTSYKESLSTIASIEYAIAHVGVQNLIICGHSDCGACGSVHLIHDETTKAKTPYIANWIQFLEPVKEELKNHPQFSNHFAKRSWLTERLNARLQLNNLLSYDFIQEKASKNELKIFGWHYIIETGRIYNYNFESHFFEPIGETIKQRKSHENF
Description: (§1) Inhibition of Helicobacter pylori recombinant CA

Row | Structure (SMILES) | Ki [nM]
1 | CC1(C)O[C@@H]2[C@@H](CO[C@@]3(COS(N)(=O)=O)OC(C)(C)O[C@@H]23)O1 [TOPIRAMATE] | 205

target: carbonic anhydrase (Helicobacter pylori, UniProt O25798)
Sequence (O25798 1-202): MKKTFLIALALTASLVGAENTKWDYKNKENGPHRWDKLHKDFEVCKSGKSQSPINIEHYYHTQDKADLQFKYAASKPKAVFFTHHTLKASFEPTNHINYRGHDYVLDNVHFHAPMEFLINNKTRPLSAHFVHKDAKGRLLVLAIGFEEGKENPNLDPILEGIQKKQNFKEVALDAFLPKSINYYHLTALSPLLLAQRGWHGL
Description: as §1

Row | Structure (SMILES) | Ki [nM]
2 | NNc1ccccc1S(N)(=O)=O | 562
3 | Nc1ccc(S(=O)(=O)NCc2ccc(S(N)(=O)=O)cc2)cc1 | 124
4 | Nc1cc(Cl)c(S(N)(=O)=O)cc1S(N)(=O)=O | 41
5 | Nc1ccc(S(N)(=O)=O)cc1I | 504
6 | Nc1ccc(S(=O)(=O)Nc2nnc(S(N)(=O)=O)s2)cc1 | 213
7 | NS(=O)(=O)c1nnc(-c2ccccc2Cl)s1 | 84
8 | Nc1nccc(Nc2ccc(S(N)(=O)=O)cc2)n1 | 72
9 | NS(=O)(=O)c1nc2ccc(O)cc2s1 | 174
10 | Nc1ccc(S(N)(=O)=O)cc1Br | 463
11 | Cn1nc(S(N)(=O)=O)sc1=N | 494
12 | NS(=O)(=O)c1ccc(CCO)cc1 | 1160
13 | Nc1ccc(S(N)(=O)=O)cc1F | 1310
14 | NS(=O)(=O)c1ccc(CO)cc1 | 870
15 | NCCc1ccc(S(N)(=O)=O)cc1 | 1040
16 | Nc1ccc(S(N)(=O)=O)cc1Cl | 395
17 | Nc1ccc(S(=O)(=O)NCCc2ccc(S(N)(=O)=O)cc2)cc1 | 96
18 | NS(=O)(=O)c1ccc(S(=O)(=O)Nc2cccc3c(Cl)c[nH]c23)cc1 | 434
19 | Nc1cc(C(F)(F)F)c(S(N)(=O)=O)cc1S(N)(=O)=O [2,4-DISULFAMYLTRIFLUOROMETHYLANILINE] | 402
20 | NS(=O)(=O)c1nnc(NS(=O)(=O)c2ccccc2)s1 [BENZOLAMIDE] | 287
21 | CCN[C@H]1CN(CCCOC)S(=O)(=O)c2sc(S(N)(=O)=O)cc21 [BRINZOLAMIDE] | 246
22 | NS(=O)(=O)c1ccc(C(=O)O)cc1 [CARZENIDE] | 1080
23 | CCOc1ccc2nc(S(N)(=O)=O)sc2c1 [ETHOXZOLAMIDE] | 155
24 | NCc1ccc(S(N)(=O)=O)cc1 [MAFENIDE] | 830
25 | Cc1ccc(S(N)(=O)=O)cc1 [P-TOLUENESULFONAMIDE] | 473
26 | Nc1ccc(S(N)(=O)=O)cc1 [SULFANILAMIDE] | 431
